Data: patent US20060069132A1, “Azolecarboxamide herbicides” (priority 2004, published 2006)

What was measured:
[1] = tested on: morningglory; assay: Test A pre-/postemergence herbicide test; type: in vivo, Ipomoea spp.
Outline: (§1)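 Seeds sown in sandy loam received a preemergence directed soil spray of compound in non-phytotoxic solvent with surfactant; postemergence plants (2–10 cm, one- to two-leaf stage) were sprayed to runoff at the same time. After ~10 days in greenhouse, injury was rated visually versus untreated controls (0 = no effect, 100 = complete control).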

[2] = tested on: redroot pigweed; assay: Test A pre-/postemergence herbicide test; type: in vivo, Amaranthus retroflexus
Outline: as §1

[3] = tested on: velvetleaf; assay: Test A pre-/postemergence herbicide test; type: in vivo, Abutilon theophrasti
Outline: as §1

[4] = tested on: bermudagrass; assay: Test C pre-/postemergence herbicide test; type: in vivo, Cynodon dactylon; conditions: for Bermudagrass plant response rating: Preemergence, 500 g ai/ha
Outline: (§2)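 Seeds were planted and sprayed preemergence with test chemicals in a non-phytotoxic solvent mixture containing surfactant; postemergence treatments went onto plants 2 to 18 cm tall (1- to 4-leaf stage). After 12 to 14 days in a greenhouse, injury was rated visually against untreated controls on a 0–100 scale.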

[5] = tested on: giant foxtail; assay: Test C pre-/postemergence herbicide test; type: in vivo, Setaria faberi; conditions: for Foxtail, Giant plant response rating: Preemergence, scale 0 to 100, 0 no effect, 100 complete control
Outline: as §2

[6] = tested on: lambsquarters; assay: Test C pre-/postemergence herbicide test; type: in vivo, Chenopodium album; conditions: for Lambsquarters plant response rating: Preemergence, scale 0 to 100, 0 no effect, 100 complete control
Outline: as §2

[7] = tested on: morningglory; assay: Test C pre-/postemergence herbicide test; type: in vivo, Ipomoea coccinea; design: key to Plant response rating, Morningglory: 0 = no effect, 100 = complete control; conditions: for Morningglory plant response rating: Preemergence, scale 0 to 100, 0 no effect, 100 complete control
Outline: as §2

[8] = tested on: eastern black nightshade; assay: Test C pre-/postemergence herbicide test; type: in vivo, Solanum ptycanthum; conditions: for Nightshade plant response rating: Preemergence, scale 0 to 100, 0 no effect, 100 complete control
Outline: as §2

[9] = tested on: yellow nutsedge; assay: Test C pre-/postemergence herbicide test; type: in vivo, Cyperus esculentus; conditions: for Nutsedge, Yellow plant response rating: Preemergence, scale 0 to 100, 0 no effect, 100 complete control
Outline: as §2

[10] = tested on: common ragweed; assay: Test C pre-/postemergence herbicide test; type: in vivo, Ambrosia elatior; design: key to Plant response rating, Ragweed: 0 = no effect, 100 = complete control; conditions: for Ragweed plant response rating: Preemergence, scale 0 to 100, 0 no effect, 100 complete control
Outline: as §2

[11] = tested on: smallflower umbrella sedge; assay: Test C flooded paddy test; type: in vivo, Cyperus difformis
[12] = tested on: barnyardgrass; assay: Test C flooded paddy test; type: in vivo, Echinochloa crus-galli
Outline: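 Postemergence sprays applied to plants 2 to 18 cm tall (1- to 4-leaf stage); paddy species grown to 2-leaf stage under flooding. After 12 to 14 days in greenhouse, visual rating versus untreated controls on 0–100 scale (0 no effect, 100 complete control).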

[13] = Postemergence, 500 g ai/ha, 0 to 100 scale, 0 no effect, 100 complete control
[14] = Postemergence, 2000 g ai/ha, 0 to 100 scale, 0 no effect, 100 complete control
[15] = Preemergence, 2000 g ai/ha, visual rating, 0 to 100 scale (0 no effect, 100 complete control)
[16] = preemergence, 500 g ai/ha, visual injury, 0 to 100 scale (0 no effect, 100 complete control)
[17] = 62 g ai/ha, preemergence, scale 0 to 100, 0 no effect, 100 complete control
[18] = 125 g ai/ha, scale 0 (no effect) to 100 (complete control), visual, 12 to 14 days, preemergence
[19] = 250 g ai/ha, scale 0-100, preemergence
[20] = scale 0 to 100, 0 no effect, 100 complete control
[21] = 62 g ai/ha, preemergence, scale 0 to 100
[22] = 500 g ai/ha, scale 0 to 100 (0 no effect, 100 complete control), visual, 12 to 14 days, preemergence
[23] = 250 g ai/ha, scale 0 to 100 (0 no effect, 100 complete control), visual, 12 to 14 days, preemergence
[24] = 62 g ai/ha, scale 0 to 100 (0 no effect, 100 complete control)
[25] = 125 g ai/ha, scale of 0 to 100, 0 is no effect, 100 is complete control

CC(=NO)c1cccc(NC(=O)c2sc(C(C)(C)C)nc2C)c1 [Compound 195]
Morningglory plant response rating [1, 13]: 10 | Plant response rating, Morningglory [1, 14]: 10 | Morningglory plant response rating [1, 15]: 10 | Morningglory plant response rating [1, 16]: 5 | Pigweed plant response rating [2, 13]: 5 | Plant response rating, Pigweed [2, 14]: 25 | Pigweed plant response rating [2, 15]: 0 | Pigweed plant response rating [2, 16]: 0 | Velvetleaf plant response rating [3, 13]: 0 | Plant response rating, Velvetleaf [3, 14]: 15 | Velvetleaf plant response rating [3, 15]: 15 | Velvetleaf plant response rating [3, 16]: 0 | Plant response rating, Bermudagrass [4, 17]: 0 | Plant response rating, Bermudagrass [4, 18]: 0 | Plant response rating, Bermudagrass [4, 19]: 30 | Bermudagrass plant response rating [4, 20]: 65 | Plant response rating, Foxtail, Giant [5, 21]: 0 | Plant response rating, Foxtail, Giant [5, 18]: 0 | Plant response rating, Foxtail, Giant [5, 19]: 0 | Foxtail, Giant plant response rating ([5]; 500 g ai/ha): 20 | Plant response rating, Lambsquarters [6, 21]: 0 | Plant response rating, Lambsquarters [6, 18]: 0 | Plant response rating, Lambsquarters [6, 19]: 10 | Lambsquarters plant response rating ([6]; 500 g ai/ha): 95 | Plant response rating, Morningglory [7, 21]: 0 | Plant response rating, Morningglory [7, 18]: 0 | Plant response rating, Morningglory [7, 19]: 0 | Morningglory plant response rating ([7]; 500 g ai/ha): 0 | Plant response rating, Nightshade [8, 21]: 0 | Plant response rating, Nightshade [8, 18]: 0 | Plant response rating, Nightshade [8, 19]: 0 | Nightshade plant response rating ([8]; 500 g ai/ha): 0 | Plant response rating, Nutsedge, Yellow [9, 21]: 0 | Plant response rating, Nutsedge, Yellow [9, 18]: 0 | Plant response rating, Nutsedge, Yellow [9, 19]: 0 | Nutsedge, Yellow plant response rating ([9]; 500 g ai/ha): 70 | Plant response rating, Ragweed [10, 21]: 20 | Plant response rating, Ragweed [10, 18]: 40 | Plant response rating, Ragweed [10, 19]: 80 | Ragweed plant response rating ([10]; 500 g ai/ha): 90

CCNC(=O)c1cccc(NC(=O)c2sc(C(C)(C)C)nc2CC)n1 [Compound 213]
Morningglory plant response rating [1, 13]: 20 | Plant response rating, Morningglory [1, 14]: 10 | Morningglory plant response rating [1, 15]: 60 | Morningglory plant response rating [1, 16]: 25 | Pigweed plant response rating [2, 13]: 30 | Plant response rating, Pigweed [2, 14]: 40 | Pigweed plant response rating [2, 15]: 95 | Pigweed plant response rating [2, 16]: 75 | Velvetleaf plant response rating [3, 13]: 30 | Plant response rating, Velvetleaf [3, 14]: 25 | Velvetleaf plant response rating [3, 15]: 35 | Velvetleaf plant response rating [3, 16]: 15 | Plant response rating, Bermudagrass [4, 17]: 50 | Plant response rating, Bermudagrass [4, 18]: 60 | Plant response rating, Bermudagrass [4, 19]: 80 | Bermudagrass plant response rating [4, 20]: 90 | Plant response rating, Foxtail, Giant [5, 21]: 30 | Plant response rating, Foxtail, Giant [5, 18]: 50 | Plant response rating, Foxtail, Giant [5, 19]: 95 | Plant response rating, Foxtail, Giant [5, 22]: 100 | Plant response rating, Lambsquarters [6, 21]: 80 | Plant response rating, Lambsquarters [6, 18]: 95 | Plant response rating, Lambsquarters [6, 19]: 100 | Plant response rating, Lambsquarters [6, 22]: 100 | Plant response rating, Morningglory [7, 21]: 0 | Plant response rating, Morningglory [7, 18]: 0 | Plant response rating, Morningglory [7, 19]: 0 | Plant response rating, Morningglory [7, 22]: 0 | Plant response rating, Nightshade [8, 21]: 100 | Plant response rating, Nightshade [8, 18]: 100 | Plant response rating, Nightshade [8, 19]: 100 | Plant response rating, Nightshade [8, 22]: 100 | Plant response rating, Nutsedge, Yellow [9, 21]: 0 | Plant response rating, Nutsedge, Yellow [9, 18]: 0 | Plant response rating, Nutsedge, Yellow [9, 19]: 0 | Plant response rating, Nutsedge, Yellow [9, 22]: 0 | Plant response rating, Ragweed [10, 21]: 0 | Plant response rating, Ragweed [10, 18]: 0 | Plant response rating, Ragweed [10, 19]: 0 | Plant response rating, Ragweed [10, 22]: 0

CCNC(=O)c1cccc(NC(=O)c2sc(C(C)(C)C)nc2C)c1 [Compound 198]
Morningglory plant response rating [1, 13]: 60 | Plant response rating, Morningglory [1, 14]: 75 | Morningglory plant response rating [1, 15]: 85 | Morningglory plant response rating [1, 16]: 45 | Pigweed plant response rating [2, 13]: 55 | Plant response rating, Pigweed [2, 14]: 75 | Pigweed plant response rating [2, 15]: 100 | Pigweed plant response rating [2, 16]: 95 | Velvetleaf plant response rating [3, 13]: 30 | Plant response rating, Velvetleaf [3, 14]: 35 | Velvetleaf plant response rating [3, 15]: 85 | Velvetleaf plant response rating [3, 16]: 45 | Plant response rating, Bermudagrass [4, 17]: 60 | Plant response rating, Bermudagrass [4, 18]: 85 | Plant response rating, Bermudagrass [4, 19]: 100 | Bermudagrass plant response rating [4, 20]: 100 | Plant response rating, Foxtail, Giant [5, 21]: 0 | Plant response rating, Foxtail, Giant [5, 18]: 10 | Plant response rating, Foxtail, Giant [5, 19]: 60 | Foxtail, Giant plant response rating ([5]; 500 g ai/ha): 100 | Plant response rating, Lambsquarters [6, 21]: 85 | Plant response rating, Lambsquarters [6, 18]: 100 | Plant response rating, Lambsquarters [6, 19]: 100 | Lambsquarters plant response rating ([6]; 500 g ai/ha): 100 | Plant response rating, Morningglory [7, 21]: 10 | Plant response rating, Morningglory [7, 18]: 70 | Plant response rating, Morningglory [7, 19]: 85 | Morningglory plant response rating ([7]; 500 g ai/ha): 85 | Plant response rating, Nightshade [8, 21]: 90 | Plant response rating, Nightshade [8, 18]: 95 | Plant response rating, Nightshade [8, 19]: 100 | Nightshade plant response rating ([8]; 500 g ai/ha): 100 | Plant response rating, Nutsedge, Yellow [9, 21]: 0 | Plant response rating, Nutsedge, Yellow [9, 18]: 0 | Plant response rating, Nutsedge, Yellow [9, 19]: 0 | Nutsedge, Yellow plant response rating ([9]; 500 g ai/ha): 5 | Plant response rating, Ragweed [10, 21]: 50 | Plant response rating, Ragweed [10, 18]: 80 | Plant response rating, Ragweed [10, 19]: 95 | Ragweed plant response rating ([10]; 500 g ai/ha): 100

CCN(C)C(=O)c1cccc(NC(=O)c2cc(C(C)(C)C)nn2CC)c1 [Compound 48]
Plant response rating (0 = no effect, 100 = complete control), Bermudagrass ([4]; 62 g ai/ha, preemergence): 80 | Plant response rating, Bermudagrass [4, 18]: 90 | Plant response rating, Bermudagrass [4, 23]: 90 | Bermudagrass plant response rating [4, 20]: 95 | Plant response rating (0 = no effect, 100 = complete control), Foxtail, Giant ([5]; 62 g ai/ha, preemergence): 0 | Plant response rating, Foxtail, Giant [5, 18]: 0 | Plant response rating, Foxtail, Giant [5, 23]: 10 | Foxtail, Giant plant response rating ([5]; 500 g ai/ha): 50 | Plant response rating (0 = no effect, 100 = complete control), Lambsquarters ([6]; 62 g ai/ha, preemergence): 85 | Plant response rating, Lambsquarters [6, 18]: 95 | Plant response rating, Lambsquarters [6, 23]: 95 | Lambsquarters plant response rating ([6]; 500 g ai/ha): 95 | Plant response rating (0 = no effect, 100 = complete control), Morningglory ([7]; 62 g ai/ha, preemergence): 0 | Plant response rating, Morningglory [7, 23]: 0 | Morningglory plant response rating ([7]; 500 g ai/ha): 20 | Plant response rating (0 = no effect, 100 = complete control), Nightshade ([8]; 62 g ai/ha, preemergence): 50 | Plant response rating, Nightshade [8, 18]: 80 | Plant response rating, Nightshade [8, 23]: 95 | Nightshade plant response rating ([8]; 500 g ai/ha): 100 | Plant response rating (0 = no effect, 100 = complete control), Nutsedge, Yellow ([9]; 62 g ai/ha, preemergence): 0 | Plant response rating, Nutsedge, Yellow [9, 18]: 0 | Plant response rating, Nutsedge, Yellow [9, 23]: 10 | Nutsedge, Yellow plant response rating ([9]; 500 g ai/ha): 30 | Plant response rating (0 = no effect, 100 = complete control), Ragweed ([10]; 62 g ai/ha, preemergence): 0 | Plant response rating, Ragweed [10, 18]: 5 | Plant response rating, Ragweed [10, 23]: 70 | Ragweed plant response rating ([10]; 500 g ai/ha): 100 | Sedge, Umbrella plant response rating ([11]; 16 g ai/ha, scale 0 to 100): 0 | Sedge, Umbrella plant response rating ([11]; 31 g ai/ha, scale 0 to 100): 0 | Sedge, Umbrella plant response rating [11, 24]: 60 | Sedge, Umbrella plant response rating [11, 25]: 60 | Barnyardgrass plant response rating ([12]; 16 g ai/ha, scale 0 to 100): 0 | Barnyardgrass plant response rating ([12]; 31 g ai/ha, scale 0 to 100): 0 | Barnyardgrass plant response rating [12, 24]: 0 | Barnyardgrass plant response rating [12, 25]: 0
